Results: patent publication US6939541B2, “Cloning, overexpression and therapeutic use of bioactive histidine ammonia lyase” (priority 2000, dated 2005)

Legend:
[1] = biological target: Corynebacteriaceae histidine ammonia lyase (HAL) (Glutamicibacter halophytocola, UniProt A0A5B8IKQ6, DEL117-117/DEL409-409/N172D/R434P/T116S); experiment: biochemical; type: biochemical, bacterium of the family Corynebacteriaceae; settings: for IC50: inhibition not complete, read-out: concentration required to reduce the activity by half
Chain of Corynebacteriaceae histidine ammonia lyase (HAL) (A0A5B8IKQ6 entry or part of it T116S/DEL117-117/N172D/DEL409-409/R434P): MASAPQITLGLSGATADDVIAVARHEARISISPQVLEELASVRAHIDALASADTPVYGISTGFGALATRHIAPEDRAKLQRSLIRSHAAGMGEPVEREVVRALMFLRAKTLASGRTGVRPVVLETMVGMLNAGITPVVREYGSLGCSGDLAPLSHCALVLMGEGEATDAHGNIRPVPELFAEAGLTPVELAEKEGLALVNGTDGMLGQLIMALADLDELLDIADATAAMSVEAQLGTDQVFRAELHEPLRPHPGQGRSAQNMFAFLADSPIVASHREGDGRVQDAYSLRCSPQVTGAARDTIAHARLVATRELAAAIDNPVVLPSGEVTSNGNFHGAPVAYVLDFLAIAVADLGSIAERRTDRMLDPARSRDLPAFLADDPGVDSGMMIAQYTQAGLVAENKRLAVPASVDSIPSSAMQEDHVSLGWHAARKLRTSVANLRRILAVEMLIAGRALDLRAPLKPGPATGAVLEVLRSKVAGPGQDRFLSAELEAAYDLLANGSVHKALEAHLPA

[2] = system: Respiratory Syncytial Virus (RSV); experiment: RSV plaque assay in Hep2 cells; type: cell-based; settings: L-histidinol 3 mM
Method: Another successful study has been with Respiratory Syncytial Virus (RSV). RSV is another highly infectious disease causing agent. It causes lower respiratory-tract infections such as bronchitis and pneumonia in infancy and early childhood, with nearly 50% of infants suffering from an RSV infection during their first winter. Experiments were performed in tissue culture using the RSV Plaque Assay. The RSV plaque assay is performed similarly to the HSV assay. When performing the RSV assay Hep2 cells are used to propagate the RSV and the cells are grown in EMEM media with 2% FBS, L-glutamine and Antibiotic-Antimycotic. The virus stock is diluted in the medium and added to each well with or without the desired testing compound. The plates are incubated for 2 hours at 37° C. and the virus is removed. 0.5% agarose is added to the media and incubated for 5 days at 37° C. The plates are then fixed with 10% formalin and stained with crystal violet.

[3] = biological target: T1, Streptomyces griseus histidine ammonia lyase (Streptomyces griseus, UniProt P24221); experiment: Inhibition of Streptomyces griseus histidine ammonia lyase; type: biochemical; settings: equal molar concentration to histidine
T1 sequence (P24221 whole entry): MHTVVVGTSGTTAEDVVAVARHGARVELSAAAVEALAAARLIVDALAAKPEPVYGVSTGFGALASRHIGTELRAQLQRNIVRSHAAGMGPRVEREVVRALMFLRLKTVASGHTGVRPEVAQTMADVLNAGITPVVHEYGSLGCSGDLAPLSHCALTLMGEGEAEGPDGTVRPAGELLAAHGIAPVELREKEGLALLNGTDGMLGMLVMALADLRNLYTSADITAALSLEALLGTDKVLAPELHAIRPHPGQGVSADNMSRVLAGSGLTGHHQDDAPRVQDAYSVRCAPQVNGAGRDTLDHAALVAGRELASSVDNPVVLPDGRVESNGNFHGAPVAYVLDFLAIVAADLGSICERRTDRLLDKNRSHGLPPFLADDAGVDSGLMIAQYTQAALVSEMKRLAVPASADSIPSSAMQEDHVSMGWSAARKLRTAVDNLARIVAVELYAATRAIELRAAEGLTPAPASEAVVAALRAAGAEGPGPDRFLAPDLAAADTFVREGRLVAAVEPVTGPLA
Excerpt: HAL has a significant advantage over other histidine ammonia lyases in that it is relatively resistant to inhibition by L-histidinol. L-histidinol is a histidine analog. Because L-histidinol acts as a competitive inhibitor it must be present in high concentrations to have an effect on histidine dependent reactions. Using HAL to reduce the overall histidine pool would therefore greatly increase the effectiveness of L-histidinol. […] Because the Corynebacteriaceae histidine ammonia lyase (HAL) is not inhibited by L-histidinol at therapeutic L-histidinol levels it has a great advantage over other histidine ammonia lyases. […] However, with HAL 20% of activity still is retained when L-histidinol is present at 10 times the concentration of L-histidine.

[4] = biological target: histidine ammonia lyase isolated from Achromobacter liquidum; settings: Shibatani et al. 1975; cited from earlier work
[5] = system: Herpes Simplex Virus (HSV); experiment: HSV plaque assay in VERO cells; type: cell-based
Method: HAL was tested for its anti-viral activity against a variety of infectious viruses in vitro. Effectiveness against Herpes Simplex Virus (HSV) was assayed using the following method. Confluent VERO cells from a T-175 flask are tyrpsinized and split into as many T-25 flasks as the experiment requires. The cells are grown in RPMI-1640 with 10% newborn calf serum-heat inactivated, and L-glutamine. After cells have grown to confluence remove the media and add 0.5 ml of diluted virus (make a series of 1:5 dilution). Dilution of virus is prepared in RPMI-1640 with 2% NCS. The cells are then incubated for 1 hour at 37° C. and then 5 ml of RPMI-1640 with 2% NCS with or without the test compounds is added and incubation is allowed to continue for 1 day. After 24 hours the flasks are sealed with parafilm and frozen at −70° C. The cells are then allowed to thaw at RT to lyse dead intact cells, releasing virus. The viral suspension is then centrifuged to remove cell debris. The viral dilution that caused complete lysis will be used in the plaque assay. The plaque assay is set up by trypsinizing cells from a T-75 and resuspending the cells in RPMI-1640 with 10% NCS and poured into 6-well plate at 2 ml/well. The cells are incubated overnight at 37° C. The media is then removed by suction and 0.2 ml of the viral dilution is added and allowed to incubate for one hour. During this hour the agar is prepared and stored at 41° C. to prevent hardening. The agar concentrations are as follows: ½ vol. 2×BME (Gibco), 2% Pen/Strep, 2% NCS, and 1% agar. After the hour incubation 2 ml of the BME/agar is carefully added to the wells, so as not to disturb the cell monolayer. The plate is left at RT for twenty to thirty minutes to allow the agar to harden, and then the cells are incubated for 48 hours at 37° C. The cells are then stained used BME/agar containing neutral red. The BME/agar is prepared as before with the addition of neutral red stain (Gibco) to a final concentration of 5%. […] Plaques are then counted and the cells fixed for a permanent record.

[6] = biological target: T1, Streptomyces griseus histidine ammonia lyase; settings: Wu et al.; cited from earlier work

O[C@@H](CS)[C@@H](O)CS [DTT]
IC50 [1]: 15 mM

O=C(O)CN(CCN(CC(=O)O)CC(=O)O)CC(=O)O [EDTA]
inhibition of the HAL reaction ([1]; concentrations as low as 1 mM): completely inhibit
reversibility of the inhibition ([1]; presence of Mn^2+ at 1×10^5 M): reversible

N[C@H](CO)Cc1c[nH]cn1 [L-histidinol]
inhibition of RSV plaque numbers [2]: no inhibition
inhibition of the enzyme [3]: completely inhibit
Ki [4]: 4.58 mM
inhibition of HSV ([5]; L-histidinol 0.1 mM): no inhibition
inhibition of HSV ([5]; L-histidinol 0.5 mM): no inhibition
inhibition of HSV ([5]; L-histidinol 1 mM): 5 fold
Ki [1]: 24.3 to 33.4 mM
inhibition of HAL ([1]; therapeutic L-histidinol levels): not inhibited

N[C@@H](CCC(=O)N[C@@H](CS)C(=O)NCC(=O)O)C(=O)O [reduced glutathione]
IC50 [1]: 15 mM

L-histidinol phosphate
Ki [6]: 0.27 mM
